Measured values published in patent US9226926B2, “Therapeutic agent for lower urinary tract disease” (N.M.A. Co., Ltd., priority 2013, dated 2016).

Key:
Type in all cases: in vivo, SD rats
[1] = system: rat model of chronic cystitis; assay: Conscious cystometrography in rat model of chronic cystitis (cyclophosphamide); conditions: 300 μL into the bladder, cyclophosphamide 150 mg/kg i.p., after two days
Protocol: In addition, experiments were performed for studying effects of the present invention on cystitis using a rat model of chronic cystitis. To 12-week old male SD rats, cyclophosphamide (150 mg/kg) was intraperitoneally administered under isoflurane anesthetization. Immediately after that, rebamipide (1 mM or 10 mM, 300 μL) or vehicle was injected into the bladder, and the rats were held in the supine position for 1 hour. (1) After two days, conscious cystometrography was performed (the saline perfusion flow rate: 0.04 ml/min) was performed.

[2] = system: rat model of chronic cystitis; assay: H&E staining of removed bladder to score the degree of inflammation
Protocol: To 12-week old male SD rats, cyclophosphamide (150 mg/kg) was intraperitoneally administered under isoflurane anesthetization. Immediately after that, rebamipide (1 mM or 10 mM, 300 μL) or vehicle was injected into the bladder, and the rats were held in the supine position for 1 hour. (2) After two days, the bladder was removed, and H&E stained to score the degree of inflammation

TNFα = TNFα in bladder tissue by RT-PCR; conditions: rebamipide group vs CYP group
Protocol: (§1) To 12-week old male SD rats, cyclophosphamide (150 mg/kg) was intraperitoneally administered under isoflurane anesthetization. Immediately after that, rebamipide (1 mM or 10 mM, 300 μL) or vehicle was injected into the bladder, and the rats were held in the supine position for 1 hour. (3) TNFα, IL-6 and IL-1β which are inflammatory cytokines in bladder tissue were measured by RT-PCR, and an inflammation marker, MPO, was measured by ELISA.

IL-6 = IL-6 in bladder tissue by RT-PCR; conditions: rebamipide group vs CYP group
Protocol: as §1

IL-1β = IL-1β in bladder tissue by RT-PCR; conditions: rebamipide group vs CYP group
Protocol: as §1

MPO = MPO inflammation marker in bladder tissue by ELISA; conditions: rebamipide group vs CYP group
Protocol: as §1

[3] = rebamipide group vs CYP group, after two days

Structure (SMILES): O=C(NC(Cc1cc(=O)[nH]c2ccccc12)C(=O)O)c1ccc(Cl)cc1 (stereo not drawn) [rebamipide, 2-(4-chlorbenzoylamino)-3-(2-quinolone-4-yl)propionic acid]
- urination interval ([1]; 1 mM): 14.4 ± 2.1 min
- urination interval ([1]; 10 mM): 21.1 ± 2.5 min
- invasive inflammatory cells [2, 3]: significantly reduced
- submucosal edema [2, 3]: significantly reduced
- bladder inflammation ([2]; rebamipide injected into the bladder, summary): suppressed
- level of TNFα in the bladder tissue (TNFα): increase was suppressed
- level of IL-6 in the bladder tissue (IL-6): increase was suppressed
- level of IL-1β in the bladder tissue (IL-1β): increase was suppressed
- level of MPO in the bladder tissue (MPO): increase was suppressed
